In patent publication US20130030025A1, “USE OF POTASSIUM CHANNEL BLOCKERS TO TREAT CEREBRAL PALSY” (priority 2011, published 2013):
Where “and” joins values, the source holds several entries; their conditions need not be identical. Equal values may be shown once. Entries after “also recorded” stand apart in the source; their conditions may differ.

Columns and labels:
[1] = test system: middle cerebral artery occlusion (MCAO) in rats; assay: Forelimb placing test after MCAO; assay type: in vivo, Sprague Dawley rats; design: Forelimb Placing Total Score, Mean: scale not given here; settings: for Forelimb Placing Total Score, Mean: group mean N=15; for Forelimb Placing Total Score: individual animals, 0=normal, 12=maximally impaired
Experimental: (§1) 4-AP was evaluated for its ability to promote functional sensorimotor improvement following ischemic stroke in rats with stable motor deficits at times remote from their ischemic events. The animal model mimics the conditions in human ischemic stroke and is produced by middle cerebral artery occlusion (MCAO), which results in extensive infarction in cerebral cortex and striatum, including the cortical spinal tract (white matter). In particular, the MCAO model in Sprague Dawley rats that was utilized in the experiments presented below mimics the conditions in human ischemic stroke. In this experiment, Sprague Dawley rats were anesthetized, subjected to a surgery resulting in middle cerebral artery occlusion (MCAO), treated with and without 4-aminopyridine and behavioral assessments were performed as described below. Surgical Procedure: A small focal stroke (infarct) was made on the right side of the surface of the brain (cerebral cortex) by middle cerebral artery occlusion (MCAO). The right side of the head was shaved with electric clippers (patch of approx 3×5 cm between eye and ear). The region was carefully cleaned with septisol. Using aseptic technique, an incision was made midway between the eye and eardrum canal. The temporalis muscle was isolated, bisected, and reflected. A small window of bone was removed via drill and rongeurs (subtemporal craniectomy) to expose the middle cerebral artery (MCA). Care was taken not to remove the zygomatic arch or to transect the facial nerve that would impair the ability of the animal to chew after surgery. […] The MCA was then transected. The temporalis muscle was then repositioned, and the incision was closed subcutaneously with sutures. The skin incision was closed with surgical staples (2-3 required). Throughout the procedure, body temperature was maintained at 37.0°±1° C., using a self-regulating heating pad connected to a rectal thermometer. Dosing: Rats were treated in accordance with the dosing schedule shown in Tables 1A, 1B, and FIG. 2, with each Phase being a two week period of time. A solution of 4-AP was used in this experiment. Dosing was started at 4 weeks after ischemic event. Treatment groups: Dosing was started 4 weeks after pMCAO surgery. During these 4 weeks, weekly behavioral assessments, as defined below, were performed. Two dose levels of 4-AP plus vehicle control were assessed, with treatment starting at 4 weeks after ischemic event. All dosing was via gastric gavage, volume not to exceed 2 mL/kg. Animals were given the first dose and behavioral assessments were performed starting 60 minutes after dosing. Animals then received the second dose that day at the appropriate time and b.i.d (preferably every 12 hours) thereafter for 2 more days (3 total days of dosing, 5 total doses). One hour after the 5th dose, animals were subjected to behavioral assessments as defined below. Following the final behavioral assessment, drug was withdrawn for 10 or 11 days, behavior was re-assessed, and then animals were re-challenged with a cross-over treatment (Phase II of Table 1B) as described in Tables 1A, 1B, followed by the same behavioral testing and dosing regimen. This cross-over was repeated one more time as well (Phase III of Table 1B) (see FIG. 2). Behavioral test details: Behavioral evaluations were done by investigators blinded to treatment assignment. As described above, behavioral assessments were timed exactly with dosing times. Animals were given the first dose, behavioral assessments were performed starting 60 minutes later, and blood was collected 90 minutes after dosing. Animals then received the second dose that day at the appropriate time and b.i.d (preferably every 12 hours) thereafter for 2 more days (3 total days of dosing, 5 total doses). One hour after the 5th dose, animals were subjected to behavioral testing. […]

[2] = test system: middle cerebral artery occlusion (MCAO) in rats; assay: Body swing test (% right swing) after MCAO; assay type: in vivo, Sprague Dawley rats
Experimental: as §1

[3] = Body weight of animals after MCAO; assay type: in vivo, Sprague Dawley rats
Experimental: Animals: 45 male Sprague Dawley Rats, 300-400 g (obtained from Charles River Laboratories, which arrived 7-10 days before surgery at 250-275 g) were used.
Treatment groups: Dosing was started 4 weeks after pMCAO surgery. During these 4 weeks, weekly behavioral assessments, as defined below, were performed. Two dose levels of 4-AP plus vehicle control were assessed, with treatment starting at 4 weeks after ischemic event. All dosing was via gastric gavage, volume not to exceed 2 mL/kg. Animals were given the first dose and behavioral assessments were performed starting 60 minutes after dosing. Animals then received the second dose that day at the appropriate time and b.i.d (preferably every 12 hours) thereafter for 2 more days (3 total days of dosing, 5 total doses). One hour after the 5th dose, animals were subjected to behavioral assessments as defined below. Following the final behavioral assessment, drug was withdrawn for 10 or 11 days, behavior was re-assessed, and then animals were re-challenged with a cross-over treatment (Phase II of Table 1B) as described in Tables 1A, 1B, followed by the same behavioral testing and dosing regimen. This cross-over was repeated one more time as well (Phase III of Table 1B) (see FIG. 2).

[4] = test system: patients with multiple sclerosis; settings: p<0.05; cited from earlier work

## Nc1ccncc1 [4-AP, 4-aminopyridine]
[1]; Group I, Phase 1, D30, High 4-AP 2.0 mg/kg b.i.d. p.o., after first dose
  Forelimb Placing Total Score, Mean: 3.37
[1]; Group I, Phase 1, D32, High 4-AP 2.0 mg/kg b.i.d. p.o., after 5th dose
  Forelimb Placing Total Score, Mean: 2.43
[1]; Group I, Phase 2, D44, Low 4-AP 0.63 mg/kg b.i.d. p.o., after first dose
  Forelimb Placing Total Score, Mean: 2.37
[1]; Group I, Phase 2, D46, Low 4-AP 0.63 mg/kg b.i.d. p.o., after 5th dose
  Forelimb Placing Total Score, Mean: 2.03
[1]; Group II, Phase 1, D30, Low 4-AP 0.63 mg/kg b.i.d. p.o., after first dose
  Forelimb Placing Total Score, Mean: 4.20
[1]; Group II, Phase 1, D32, Low 4-AP 0.63 mg/kg b.i.d. p.o., after 5th dose
  Forelimb Placing Total Score, Mean: 3.43
[1]; Group II, Phase 3, D58, High 4-AP 2.0 mg/kg b.i.d. p.o., after first dose
  Forelimb Placing Total Score, Mean: 1.90
[1]; Group II, Phase 3, D60, High 4-AP 2.0 mg/kg b.i.d. p.o., after 5th dose
  Forelimb Placing Total Score, Mean: 1.17
[1]; Group III, Phase 2, D44, High 4-AP 2.0 mg/kg b.i.d. p.o., after first dose
  Forelimb Placing Total Score, Mean: 2.67
[1]; Group III, Phase 2, D46, High 4-AP 2.0 mg/kg b.i.d. p.o., after 5th dose
  Forelimb Placing Total Score, Mean: 1.33
[1]; Group III, Phase 3, D58, Low 4-AP 0.63 mg/kg b.i.d. p.o., after first dose
  Forelimb Placing Total Score, Mean: 2.00
[1]; Group III, Phase 3, D60, Low 4-AP 0.63 mg/kg b.i.d. p.o., after 5th dose
  Forelimb Placing Total Score, Mean: 1.80
[1]; Group I, Phase 1, D30 post-MCAO, High 4-AP 2.0 mg/kg b.i.d. p.o., 60 min after first dose
  Forelimb Placing Total Score: 4.50 (4×) and 3.50 (4×) and 4.00 and 5.50 and 3.00 (2×) and 0.50 and 1.00 and 1.50
[1]; Group I, Phase 1, D32, High 4-AP 2.0 mg/kg b.i.d. p.o., 1 h after 5th dose
  Forelimb Placing Total Score: 3.00 (4×) and 2.00 (3×) and 3.50 (3×) and 2.50 and 0.50 (3×) and 4.00
[1]; Group I, Phase 2, D44, Low 4-AP 0.63 mg/kg b.i.d. p.o., 60 min after first dose
  Forelimb Placing Total Score: 3.50 (2×) and 1.50 (2×) and 4.00 (4×) and 3.00 (2×) and 2.00 and 0.00 (2×) and 0.50 and 1.00
[1]; Group I, Phase 2, D46, Low 4-AP 0.63 mg/kg b.i.d. p.o., 1 h after 5th dose
  Forelimb Placing Total Score: 3.50 (2×) and 1.50 (3×) and 3.00 (3×) and 4.00 and 2.50 (2×) and 0.00 (3×) and 1.00
[1]; Group II, Phase 1, D30, Low 4-AP 0.63 mg/kg b.i.d. p.o., 60 min after first dose
  Forelimb Placing Total Score: 5.50 (3×) and 4.00 (2×) and 3.50 and 5.00 and 4.50 and 1.50 (2×)
[1]; Group II, Phase 1, D32, Low 4-AP 0.63 mg/kg b.i.d. p.o., 1 h after 5th dose
  Forelimb Placing Total Score: 5.50 and 2.00 (2×) and 4.00 and 5.00 and 3.50 and 4.50 and 1.00 (2×) and 3.00
[1]; Group II, Phase 3, D58, High 4-AP 2.0 mg/kg b.i.d. p.o., 60 min after first dose
  Forelimb Placing Total Score: 2.50 (2×) and 0.00 (3×) and 1.50 (2×) and 3.00 and 5.00 and 2.00
[1]; Group II, Phase 3, D60, High 4-AP 2.0 mg/kg b.i.d. p.o., 1 h after 5th dose
  Forelimb Placing Total Score: 1.00 (4×) and 0.00 (4×) and 1.50 and 3.50
[1]; low or high dose, 4 weeks post ischemic brain injury, rats, dose-responsive, reversible
  effect on forelimb function (forelimb placing test): effective to improve forelimb function; also recorded: significant improvement
[2]; Group I, D30, individual animals
  Body Swing Test (% right Swing): 33.33% (3×) and 53.33% and 40.00% (2×) and 30.00% and 36.67% (5×) and 43.33% and 26.67% and 46.67%
[2]; Group I, D30, mean of N 15
  Body Swing Test (% right Swing), Mean: 37.56%
[2]; Group I, D32, individual animals
  Body Swing Test (% right Swing): 43.33% (2×) and 50.00% (3×) and 53.33% (3×) and 26.67% and 33.33% (3×) and 40.00% (2×) and 30.00%
[2]; Group I, D32, mean of N 15
  Body Swing Test (% right Swing), Mean: 42.22%
[2]; Group I, D44, low dose phase (inferred), individual animals
  Body Swing Test (% right Swing): 33.33% (3×) and 56.67% and 43.33% (3×) and 26.67% (2×) and 50.00% and 40.00% (2×) and 46.67% and 30.00% (2×)
[2]; Group I, D44, low dose phase (inferred), mean of N 15
  Body Swing Test (% right Swing), Mean: 38.44%
[2]; Group I, D46, individual animals
  Body Swing Test (% right Swing): 36.67% (3×) and 43.33% (4×) and 33.33% (3×) and 30.00% and 53.33% and 20.00% (2×) and 40.00%
[2]; Group I, D46, mean of N 15
  Body Swing Test (% right Swing), Mean: 36.44%
[2]; Group II, D30, individual animals
  Body Swing Test (% right Swing): 20.00% and 40.00% and 16.67% and 30.00% and 36.67% and 33.33% (2×) and 23.33% and 53.33% and 26.67%
[2]; Group II, D30, mean of N 15
  Body Swing Test (% right Swing), Mean: 32.89%
[2]; Group II, D32, individual animals
  Body Swing Test (% right Swing): 33.33% (5×) and 40.00% and 43.33% (2×) and 30.00% and 46.67%
[2]; Group II, D32, mean of N 15
  Body Swing Test (% right Swing), Mean: 37.78%
[2]; Group II, D58, individual animals
  Body Swing Test (% right Swing): 46.67% (3×) and 33.33% (3×) and 26.67% and 40.00% and 43.33% and 50.00%
[2]; Group II, D58, mean of N 15
  Body Swing Test (% right Swing), Mean: 40.67%
[2]; Group II, D60, individual animals
  Body Swing Test (% right Swing): 43.33% and 40.00% (2×) and 33.33% (2×) and 46.67% (2×) and 36.67% and 50.00% (2×)
[2]; Group II, D60, mean of N 15
  Body Swing Test (% right Swing), Mean: 42.67%
[2]; Group III, D44, high dose phase (inferred), mean of N 15
  Body Swing Test (% right Swing), Mean: 39.56%
[2]; Group III, D46, high dose phase (inferred), mean of N 15
  Body Swing Test (% right Swing), Mean: 40.44%
[2]; Group III, D58, low dose phase (inferred), mean of N 15
  Body Swing Test (% right Swing), Mean: 34.89%
[2]; Group III, D60, low dose phase (inferred), mean of N 15
  Body Swing Test (% right Swing), Mean: 35.11%
[2]; low or high dose, rats after MCAO, reversible and dose-dependent
  effect on global body control (body swing test): effective to improve the percentage of rightward over total swings; also recorded: significant improvement
[3]; Group I, D30, first dosing phase (high dose, inferred)
  Weight (g), Mean: 453.1 g
[3]; Group I, D32, first dosing phase (high dose, inferred)
  Weight (g), Mean: 436.3 g
[3]; Group I, D44, second dosing phase (low dose, inferred)
  Weight (g), Mean: 476.2 g
[3]; Group I, D46, second dosing phase (low dose, inferred)
  Weight (g), Mean: 471.1 g
[3]; Group II, D30, first dosing phase (low dose, inferred)
  Weight (g), Mean: 446.0 g
[3]; Group II, D32, first dosing phase (low dose, inferred)
  Weight (g), Mean: 438.1 g
[3]; Group II, D58, third dosing phase (high dose, inferred)
  Weight (g), Mean: 500.9 g
[3]; Group II, D60, third dosing phase (high dose, inferred)
  Weight (g), Mean: 483.0 g
[3]; Group III, D44, second dosing phase (high dose, inferred)
  Weight (g), Mean: 471.9 g
[3]; Group III, D46, second dosing phase (high dose, inferred)
  Weight (g), Mean: 451.0 g
[3]; Group III, D58, third dosing phase (low dose, inferred)
  Weight (g), Mean: 494.9 g
[3]; Group III, D60, third dosing phase (low dose, inferred)
  Weight (g), Mean: 485.1 g
[4]
  leg strength (LEMMT) relative to placebo: statistically significantly improved
